Source: patent US10905683B2, “Compositions and uses of amidine derivatives” (BIOCRYST PHARMACEUTICALS, INC., priority 2014, dated 2021)
Values joined by “and” are separate entries in the source; they are usually repeats but may differ in a detail not shown here. Identical values can stand only once.

Legend:
[1] = Stability and photostability of formulations
Description: This is a standard practice in the pharmaceutical industry in order to accelerate any chemical reactions that may occur due to environmental conditions (temperature, oxygen, light). […] If the stability data from the stress studies indicates a potential stability challenge, then further studies are required to identify the stability issue and resolve it.
Initial stability studies were conducted under accelerated conditions. […] Several antioxidants were identified for study. These antioxidants are pharmaceutically acceptable for use in human oral dosage forms and are compatible with the gelatin composition in a soft gelatin capsule.
Stability studies were performed with formulations that were protected from light and formulations exposed to light.

[2] = Solubility in organic solvents; type: physicochemical
Description: The solubility of the compound of Example 1 in a range of organic solvents was measured. Solubility assays were performed by the sequential addition of the compound of Example 1 to an appropriate organic solvent while stirring vigorously until a precipitate is formed. The resulting suspension is then shaken for 24 hours at room temperature, filtered and the resulting solution was analyzed by appropriate analytical method. Quantitation was performed by comparison of the concentrations of the resulting solution of the compound of Example 1 to a single point calibration curve using a solution of the reference standard.

[3] = pH-solubility curve in citrate-phosphate buffers; type: physicochemical; conditions: free base, FIG. 1
Text: A pH-solubility curve was generated for the compound of Example 1 in citrate-phosphate buffers to evaluate the effect of pH on solubility of the free base material.

[4] = Aqueous solubility assay in buffer and simulated gastric/intestinal fluids
Description: The target concentration in each solution was 100 μM. […] The aqueous solutions were added (1 mL) to the dried samples and mixed at 400 rpm at 37° C. on an orbital plate shaker. […] Samples were prepared in triplicate. Testosterone and verapamil were used as reference compounds.

[5] = Relative bioavailability crossover study, soft v. hard gelatin capsules and food effect; type: in vivo, human
Description: A single dose, randomized, 3-period crossover study was conducted to evaluate the relative bioavailability of the compound of Example 1 formulated as a soft gelatin capsule to the compound of Example 1 formulated as a hard gelatin capsule and to determine the effect of food on the pharmacokinetics of the compound of Example 1. The goals of this study were to ascertain the relative bioavailability and pharmacokinetics of the compound of Example 1 in soft gelatin capsules to hard gelatin capsules when administered following an overnight fast in healthy subjects. In addition, the study estimated the effect of a high-fat meal upon the pharmacokinetics of the compound of Example 1 following single dose administration of 400 mg of the compound of Example 1 in a soft gelatin capsules to healthy subjects. Hard and soft gelatin capsules were prepared as in Example 8 and 9, respectively, below.
The study was a single-dose, open-label, randomized, 3-way cross-over design. During each treatment period, eighteen subjects will receive a single dose of one of the following treatments in a randomized sequence:
Treatment A: BCX4161 400 mg as 4×100 mg hard gelatin capsules following an overnight fast
Treatment B: BCX4161 400 mg as 4×100 mg soft gelatin capsules following an overnight fast
Treatment C: BCX4161 400 mg as 4×100 mg soft gelatin capsules following a high fat meal […]

[6] = Solubility with cyclodextrins and co-agents; type: physicochemical; conditions: for solubility: aqueous with cosolvent or surfactant or cyclodextrin, thermodynamic from solid
Description: Additional solubility studies were undertaken using cyclodextrins, including α-cyclodextrin and a polyanionic β-cyclodextrin derivative with a sodium sulfonate salt separated from the lipophilic cavity by a butyl ether or sulfobutylether spacer group) (referred to herein as Captisol) in combination with a variety of co-agents.
Test samples were prepared with the indicated cyclodextrins and the compound of Example 1, both with and without additional agents. The test solutions were sonicated in a Fisher model 55 dismembrator (small probe) at its maximum setting of 5 for 90 seconds. The samples were rotated overnight at room temperature to allow equilibration. Quantitation was performed by comparison of the concentrations of the resulting solution of the compound 1 to a single point calibration curve using a solution of the reference standard.

[7] = Absorption enhancement studies in the rat, intragastric dosing, plasma concentration
Description: Based on the solubility data that was reported previously, combinations of solvents were evaluated to study the effect of formulation composition on oral absorption.
Combinations of solvents and surfactants were evaluated in rat, dog and nonhuman primate models at levels appropriate for a potential human oral pharmaceutical product.
The early studies in rats used aqueous dosing solutions.
These formulations included a variety of solvents and co-solvents for evaluation to maximize absorption and form a physicochemically stable liquid. Unless otherwise indicated, the percentages are expressed by weight as a proportion of the total weight of all excipients present in the mixture (i.e. excluding the active ingredient).

[8] = rat, intragastric 5 mg/Kg, aqueous dosing solution, individual rats 1-4

For C=Cc1cc(C(=O)Nc2ccc(C(=N)N)cc2)c(-c2ccc(C(=O)NCC3CC3)nc2C(=O)O)cc1OC [Example 1, 3-[2-(4-carbamimidoyl-phenylcarbamoyl)-5-methoxy-4-vinyl-phenyl]-6-(cyclopropylmethyl-carbamoyl)-pyridine-2-carboxylic acid], the “chemical stability under accelerated conditions” value ([1]; combined with candidate formulations, exposed to light, oxygen and elevated temperatures) was “underwent degradation”, the photostability ([1]; exposed to ultraviolet (UV) or white (CW) light) was “demonstrated photodegradation” and the “Saturated concentration of Example 1” value ([2]; Dimethyl acetamide, 40% solvent in water) was 12.9 mg/mL. The “Saturated concentration of Example 1” value ([2]; Dimethyl acetamide, 60% solvent in water) was 24.8 mg/mL, the “Saturated concentration of Example 1” value ([2]; Ethanol, 40% solvent in water) was 5.9 mg/mL and the “Saturated concentration of Example 1” value ([2]; Ethanol, 60% solvent in water) was 21.8 mg/mL. The “Saturated concentration of Example 1” value ([2]; Ethanol, 100%) was 23.9 mg/mL, the “Saturated concentration of Example 1” value ([2]; Glycerol, 100%) was 5.5 mg/mL and the “Saturated concentration of Example 1” value ([2]; N-Methyl-2-pyrrolidone, 100%, not saturated) was >11 (not saturated) mg/mL. For the same compound, the “Saturated concentration of Example 1” value ([2]; Polyethylene glycol 400, 40% solvent in water) was 11.9 mg/mL, the “Saturated concentration of Example 1” value ([2]; Polyethylene glycol 400, 60% solvent in water) was 18.6 mg/mL and the “Saturated concentration of Example 1” value ([2]; Polyethylene glycol 400, 100%) was 21.2 mg/mL. For the same compound, the “Saturated concentration of Example 1” value ([2]; Propylene glycol, 40% solvent in water) was 2.67 mg/mL, the “Saturated concentration of Example 1” value ([2]; Propylene glycol, 60% solvent in water) was 27.9 mg/mL and the “Saturated concentration of Example 1” value ([2]; Propylene glycol, 100%) was greater than 55 mg/mL. The “effect of pH on aqueous solubility” value [3] was “not a significant effect”, the solubility at 24 h ([4]; 37 °C, fassgf or other biorelevant, thermodynamic from solid, Observed Solubility, Target 100 μM, Fasted-State SGF, 24 hours) was 109 µM and the solubility at 24 h ([4]; 37 °C, fassgf or other biorelevant, thermodynamic from solid, Observed Solubility, Target 100 μM, Fed-State SGF, 24 hours) was 99 µM. For the same compound, the solubility at 24 h ([4]; 37 °C, fassif, thermodynamic from solid, Observed Solubility, Target 100 μM, Fasted-State SIF, 24 hours) was 111 µM, the solubility at 24 h ([4]; 37 °C, fessif, thermodynamic from solid, Observed Solubility, Target 100 μM, Fed-State SIF, 24 hours) was 119 µM and the solubility at 24 h ([4]; 37 °C, pH 7.4, aqueous buffer, thermodynamic from solid, Observed Solubility, Target 100 μM, 0.1M phosphate buffer pH 7.4, 37° C., 24 hours) was 118 µM. For the same compound, the solubility at 24 h ([4]; solubility, aqueous/physiological fluids) was 100 µg/mL, the “geometric mean Cmax, soft gelatin capsules as compared to hard gelatin capsules” value ([5]; 400 mg single dose, fasting) was “approximately 80%” and the bioavailability ([5]; formulated in a soft gelatin capsule) was “good bioavailability”. The solubility ([6]; Captisol 150 mM with DMSO 10%, Captisol 150 mM, DMSO 10%) was 3980 µg/mL, the solubility ([6]; Captisol 150 mM with ethanol 10%, Captisol 150 mM, Ethanol 10%) was 3550 µg/mL and the solubility ([6]; Captisol 150 mM with propylene glycol 10%, Captisol 150 mM, Propylene glycol 10%) was 3300 µg/mL. It also gave a solubility ([6]; Captisol 150 mM with sodium dodecyl sulphate 100 mg, Captisol 150 mM, Sodium dodecyl sulphate 100 mg) of 240 µg/mL, a solubility ([6]; Captisol (sulfobutylether β-cyclodextrin) solution, Captisol 150 mM, no co-solvent) of 7610 µg/mL and a solubility ([6]; Captisol solution with co-agent, Captisol 150 mM, HPMC E-5 0.25%) of 4160 µg/mL. The solubility ([6]; Captisol solution with co-agent, Captisol 150 mM, Polyethylene glycol 400 10%) was 5460 µg/mL, the solubility in cyclodextrins ([6]; with and without co-agents) was “not soluble in cyclodextrins” and the solubility ([6]; α-cyclodextrin 150 mM with DMSO 10%, α-cyclodextrin 150 mM, DMSO 10%) was 11100 µg/mL. The solubility ([6]; α-cyclodextrin 150 mM with ethanol 10%, α-cyclodextrin 150 mM, Ethanol 10%) was 270 µg/mL, the solubility ([6]; α-cyclodextrin 150 mM with propylene glycol 10%, α-cyclodextrin 150 mM, Propylene glycol 10%) was 4980 µg/mL and the solubility ([6]; α-cyclodextrin solution with co-agent, α-cyclodextrin 150 mM, HPMC E-5 0.25%) was 9950 µg/mL. For the same compound, the solubility ([6]; α-cyclodextrin solution with co-agent, α-cyclodextrin 150 mM, Polyethylene glycol 400 10%) was 5000 µg/mL, the solubility ([6]; α-cyclodextrin solution with co-agent, α-cyclodextrin 150 mM, Sodium dodecyl sulphate 100 mg) was 10000 µg/mL and the solubility ([6]; α-cyclodextrin solution, α-cyclodextrin 150 mM, no co-solvent) was 10000 µg/mL. The concentration at 0 min ([7]; rat, in vivo, 5 mg/Kg, Plasma concentration, 0 min, intragastric 5 mg/Kg, aqueous dosing solution, individual rats 1-4) was 0 ng/mL, the “Plasma concentration, 0 min” value [7, 8] was 0 ng/mL and the “Plasma concentration, 30 min” value [7, 8] was 108 ng/mL and <10 ng/mL and 188 ng/mL and 23 ng/mL. The “Plasma concentration, 1 hr” value [7, 8] was 88 ng/mL and <10 ng/mL and 130 ng/mL and 30 ng/mL, the “Plasma concentration, 2 hr” value [7, 8] was 123 ng/mL and <10 ng/mL and 87 ng/mL and 27 ng/mL and the “Plasma concentration, 4 hr” value [7, 8] was 134 ng/mL and <10 ng/mL and 99 ng/mL and 24 ng/mL. For the same compound, the “Plasma concentration, 8 hr” value [7, 8] was 48 ng/ml and <10 ng/ml (2×) and 30 ng/ml and the “Gastrointestinal (GI) absorption” value ([7]; rats, aqueous dosing solutions) was “very low or zero”.
